Values joined by “and” are separate entries in the source; they are usually repeats but may differ in a detail not shown here. Identical values can stand only once. Like-named read-outs stand apart in the source and are kept apart here.
What was measured:
[1] = system: Pin1-knockout pancreatic cancer cells; assay: Organoid growth in Matrigel, Pin1-knockout PATU-8988T; assay type: cell-based; conditions: 1 μM, 9 days
Experimental: As three dimensional (3D) organoid models can reflect in vivo results better than monolayer cell culture [Baker et al., Trends Cancer Res 2016, 2:176-190], the anti-proliferative activity of Pin1-3 in PATU-8988T was further evaluated in wild-type or Pin1-knockout cells grown as organoids in Matrigel™ droplets. Cells were treated for 9 days with Pin1-3 (or Pin1-3-AcA or vehicle as a control), replenishing the compound in media every 3 days.

[2] = system: 8988T pancreatic adenocarcinoma cells; assay: Prolonged-treatment cell growth, wild-type 8988T; assay type: cell-based; conditions: 1 μM, 6-8 days
Experimental: (§1) The ability of Pin1-3 treatment to induce more pronounced anti-proliferative effects after prolonged treatment (6-8 days) was then assessed. In order to ensure that target engagement was maintained for the duration of the experiment, Pin1-3 was replenished in fresh media every 48 hours.
The effect of Pin1-binding compounds on 8988T pancreatic adenocarcinoma cells was assessed by incubating cells with 1 μM Pin1-3, and evaluating cell growth relative to cells incubated with vehicle (DMSO) alone. In order to confirm that the effect of Pin1-3 is mediated by Pin1, the experiment was repeated using Pin1 knockout cells.

[3] = Pharmacokinetics, oral administration; assay type: in vivo, Male C57Bl/6J mice; conditions: for AUC(0-inf): read-out: AUCINF obs. (converted)
Experimental: Male C57Bl/6J mice received Pin1-3 intravenously (as a 0.2 mg/ml solution in 5/5/90 NMP/Solutol/saline) or orally (as a 1 mg/ml solution in 5/5/90 NMP/Solutol/saline). The intravenous dosage was 2 mg/kg and the oral dosage was 10 mg/kg.

[4] = system: KPC mouse derived tumor cells; assay: KPC orthotopic transplantation mouse model; assay type: in vivo, mice; conditions: IP 20 or 40 mg/kg every day
Experimental: 10^6 KPC (KrasLSL.G12D/+; p53R172H/+; PdxCretg/+) mouse derived tumor cells were transplanted into B6 mice pancreas (orthotopic transplantation). After 1 week of the transplantation, treatment of mice with Pin1-3 began. Mice were treated (IP) with Pin1-3 diluted solution (as a control), or 20 or 40 mg/kg every day. Tumor size was measured, and when the tumor size in control group reached 2 cm, mice were sacrificed to collect tumor tissue (n=4), and Kaplan-Meier survival analysis (n=8) was performed.

[5] = molecular target: T1, catalytic domain of Pin1 (Homo sapiens, UniProt Q13526); assay: Intact protein LC/MS labeling of Pin1; assay type: binding
T1 construct: The purified catalytic domain of Pin1 was incubated with the fragment library
T1 sequence (Q13526 52-163 limits assumed): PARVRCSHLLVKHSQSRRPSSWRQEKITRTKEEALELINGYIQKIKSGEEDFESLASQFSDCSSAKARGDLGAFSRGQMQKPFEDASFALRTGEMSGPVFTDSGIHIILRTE
Experimental: 993 compounds were transferred to a 384-well plate working copy by combining 0.5 μl of 20 mM stock solution of four or five compounds per well. The catalytic domain of Pin1 (2 μM) in 20 mM Tris, 75 mM NaCl, pH 7.5 was incubated with 200 μM for each compound and moderately shaken for 24 hours at 4° C. The reaction was stopped by the addition of formic acid to 0.4% (v/v) final concentration.
Liquid chromatography/mass spectroscopy runs were performed on an Acquity™ UPLC® H-class system (Waters) in positive ion mode using electrospray ionization (ESI). UPLC separation was performed on a C4 column (300 Å, 1.7 μM, […]). The column was held at 40° C., and the autosampler at 10° C. Mobile solution A was 0.1% formic acid in water and mobile phase B was 0.1% formic acid in acetonitrile. Run flow was 0.4 ml/minute; and a gradient of 20% B for 2 minutes, increasing linearly to 60% B for 3 minutes, holding at 60% B for 1.5 minutes, changing to 0% B in 0.1 minute and holding at 0% for 1.4 minutes, was used. Desolvation temperature was 500° C. with a flow rate of 1000 liters/hour. The capillary voltage was 0.69 kV and cone voltage 46 V. Raw data was processed using OpenLynx™ software and deconvoluted using the MaxEnt tool. Labeling assignment was performed as described in Resnick et al. [J Am Chem Soc 2019, 141:8951-8968].
For the screening 2 μl of each of the 448 click products as 50 μM DMSO stocks were transferred into a 384-well plate working plate. 48 μl of catalytic domain of Pin1 (2 μM) in 20 mM Tris (pH 7.5) with 75 mM NaCl were added and moderately shaken and incubated for 15 minutes at room temperature. The reaction was stopped by the addition of formic acid to 0.4% (v/v) final concentration (20 μl). The mixtures were analyzed by liquid chromatography/mass spectroscopy analogously to the electrophile library incubations described herein. Hits were retrospectively analyzed by liquid chromatography/mass spectroscopy (LC-MS) to ensure reaction completion.
For each measured well, processed peaks were searched to match the mass of unlabeled protein or common small adducts of the unlabeled protein, which were found in the control sample or labeled protein. Labeling percentage for a compound was determined as the labeling of a specific compound divided by the overall detected protein species. Peaks whose mass could not be assigned were discarded from the overall labeling calculation. Data was analyzed using a python script for processing the MaxEnt-deconvoluted spectra. Peaks were normalized from ion counts to percentages, where the highest peak is defined as 100%. The unlabeled protein mass is deduced from a reference well that contains just the protein.
The purified catalytic domain of Pin1 was incubated with the fragment library (2 μM protein, 200 μM compound; 24 hours at 4° C.), followed by intact protein liquid chromatography/mass-spectrometry (LC/MS) to identify and quantify compound labeling. FIG. 1 depicts an example of a compound identified in this manner.
Based on the docking predictions, a total of 26 compounds that featured a range of small or bulky aliphatic, arylic, biphenylic or heterocyclic side-chains (structures depicted in FIG. 5), were synthesized or purchased. In order to identify potent binders, the irreversible labeling efficiency of these second-generation compounds was assessed alongside the original screening hits under more stringent conditions, with a 1:1 ratio of protein to compound (2 μM compound; 1 hour at room temperature).
For further optimization of the lipophilic moiety, an alkyne side chain-bearing analog was prepared, which was derivatized with 448 different azides using copper-catalyzed azide-alkyne cycloaddition (CuAAC).

[6] = system: PC3 prostate cancer cells; assay: Prolonged-treatment cell growth, PC3; assay type: cell-based; conditions: PC3, 1 or 2.5 μM
Experimental: as §1

[7] = male, C57Bl/6J, mouse, in vivo, po, 10 mg/kg, oral 10 mg/kg, Avg. of 3 mice
[8] = male, C57Bl/6J, mouse, in vivo, po, 10 mg/kg, oral 10 mg/kg, individual mice No. 1-3
[9] = oral 10 mg/kg, individual mice No. 1-3, 10 mg/kg

SMILES: CC(C)(C)CN(C(=O)CCl)C1CCS(=O)(=O)C1 (stereo not drawn) [Pin1-3, 2-chloro-N-(sulfolan-3-yl)-N-neopentylacetamide]
- Organoid growth [1]: no effect
- Cell viability / growth [2]: reduced pancreatic cancer cell viability
- AUC(0-t) [3, 7]: 9210 ng·h/mL and 32.8 µM·h
- Tmax [3, 7]: 25.2 min
- half-life [3, 7]: 49.2 min
- AUC(0-inf) [3, 7]: 9230 ng·h/mL
- Cmax ([3]; male, C57Bl/6J, mouse, in vivo, po, 10 mg/kg, oral 10 mg/kg, Avg. of 3 mice, read-out: Cmax): 11.5 µM and 3220 ng/mL
- AUC(0-t) [3, 8]: 9590 ng·h/mL and 34.1 µM·h
- Tmax [3, 8]: 15 min
- half-life [3, 8]: 38.4 min
- AUC(0-inf) [3, 8]: 9600 ng·h/mL
- Cmax ([3]; male, C57Bl/6J, mouse, in vivo, po, 10 mg/kg, oral 10 mg/kg, individual mice No. 1-3, read-out: Cmax): 4050 ng/mL and 14.4 µM
- bioavailability ([3]; male, C57Bl/6J, mouse, in vivo, oral 10 mg/kg vs intravenous 2 mg/kg, Avg., read-out: F % (oral bioavailability)): 30.4%
- AUC % extrap. ([3]; oral 10 mg/kg, Avg. of 3 mice): 0.24%
- Cl obs. ([3]; oral 10 mg/kg, Avg. of 3 mice): 18.15 mL/min/kg
- AUC % extrap. [3, 9]: 0.03% and 0.32% and 0.38%
- AUCINF obs. [3, 9]: 498172 ng·min/mL and 587646 ng·min/mL
- AUClast [3, 9]: 496559 min*ng/ml and 29.4 hr*μM and 585438 min*ng/ml and 34.7 hr*μM
- Cl obs. [3, 9]: 17.37 mL/min/kg and 20.07 mL/min/kg and 17.02 mL/min/kg
- Cmax [3, 9]: 2420 ng/mL and 3200 ng/mL
- T1/2 [3, 9]: 54.6 min and 55.2 min
- Cmax ([3]; oral 10 mg/kg, individual mice No. 1-3, 10 mg/kg, read-out: Cmax): 8.61 µM and 11.4 µM
- KPC tumor growth [4]: inhibited KPC tumor growth
- Survival (Kaplan-Meier) [4]: enhanced survival
- Labeling [%] ([5]; 2 μM Pin1 with 2 μM test compound for 15 minutes at room temperature): 10%
- Labeling [%] ([5]; 2 μM Pin1 with 2 μM test compound for 1 hour at room temperature): 48%
- Cell growth [6]: long-term inhibition

Reference: patent US20210332024A1, “MODULATORS OF PIN1 ACTIVITY AND USES THEREOF” (Yeda Research and Development Co. Ltd., priority 2019, published 2021)
